We go through five molecules from US12338262B2 (Forward Therapeutics, Inc., priority 2022, dated 2025).

The target of this assay is TNF-α (Homo sapiens, UniProt P01375). Briefly: TNF-α Induced HEK Blue Cellular Assay. Format: cell-based. The note with it: HEK Blue TNFα reporter cells, TNF-α 100 pg/ml, 24 hrs at 37° C., secreted alkaline phosphatase (QUANTI-Blue, 620 nm). The gist of the method:
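HEK Blue TNFα reporter cells (10,000/well, DMEM + 10% FBS) treated with compound ([…] to 0.5 nM final) and stimulated with 100 pg/ml TNF-α for 24 h at 37 °C. Secreted alkaline phosphatase read with QUANTI-Blue at 620 nm; IC50 by 4-parameter logistic fit after background correction to stimulated/unstimulated DMSO controls.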

SMILES strings stand for the structures.

Chain of TNF-α (P01375 77-233 limits assumed): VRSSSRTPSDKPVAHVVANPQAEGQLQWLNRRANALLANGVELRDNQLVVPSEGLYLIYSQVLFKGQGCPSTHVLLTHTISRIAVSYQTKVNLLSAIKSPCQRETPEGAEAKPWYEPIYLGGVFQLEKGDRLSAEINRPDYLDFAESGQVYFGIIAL

`Cc1nc2cc(F)c(-c3ccc(P(C)(C)=O)nc3)nc2c(N[C@H](c2cccc(F)c2F)C(F)F)c1Cl` [Example 146, (R)-(5-(7-chloro-8-((1-(2,3-difluorophenyl)-2,2-difluoroethyl)amino)-3-fluoro-6-methyl-1,5-naphthyridin-2-yl)pyridin-2-yl)dimethylphosphine oxide] yielded an IC50 of 1 to 10 µM.
The same measure for `CC[C@@H](Nc1c(Cl)c(C)nc2cc(F)c(-c3ccc(P(C)(C)=O)nc3)nc12)c1cc(F)cc(F)c1` [Example 147, 3-chloro-N-[(1R)-1-(3,5-difluorophenyl)propyl]-6-[6-(dimethylphosphoryl)pyridin-3-yl]-7-fluoro-2-methyl-1,5-naphthyridin-4-amine]: 1 to 10 µM.
As for `CC[C@H](Nc1c(Cl)c(C)nc2cc(F)c(-c3ccc(P(C)(C)=O)nc3)nc12)c1cc(F)cc(F)c1` [Example 148, 3-chloro-N-[(1S)-1-(3,5-difluorophenyl)propyl]-6-[6-(dimethylphosphoryl)pyridin-3-yl]-7-fluoro-2-methyl-1,5-naphthyridin-4-amine], the figure is 1 to 10 µM.
The same measure for `CCC(Nc1c(Cl)c(C)nc2cc(F)c(-c3ccc(P(C)(C)=O)nc3)nc12)c1ccn(C)n1` (centres unmarked) [Example 149, 3-chloro-6-[6-(dimethylphosphoryl)pyridin-3-yl]-7-fluoro-2-methyl-N-[1-(1-methylpyrazol-3-yl)propyl]-1,5-naphthyridin-4-amine]: 10 to 30 µM; for `Cc1nc2cc(F)c(-c3ccc(P(C)(C)=O)nc3)nc2c(N[C@H](C)c2cc(C3CC3)ccc2F)c1Cl` [Example 150, 3-chloro-N-[(1R)-1-(5-cyclopropyl-2-fluorophenyl)ethyl]-6-[6-(dimethylphosphoryl)pyridin-3-yl]-7-fluoro-2-methyl-1,5-naphthyridin-4-amine]: not above 1 µM.
